Data taken from PubChem BioAssay AID1963968 (Molecular Pharmacology Branch, DTP, NCI, 2024).
Where “and” joins values, the source holds several entries; their conditions need not be identical. Equal entries are not always repeated.

System: 945468-187-T-J3-PDC spheroids with HUVEC/MSC, viability
Experiment: Anticancer human tumor 945468-187-T-J3-PDC patient-derived rectal carcinoma cell line growth inhibition [PI3K]
Settings: for viability, T/C: stronger effect = lower value; active = viability on the fitted dose curve at most 10% of control; inactive = the rest
Description: Combinatorial screen of targeted agents with the PI3K inhibitors inavolisib, alpelisib, duvelisib, and copanlisib in multi-cell type tumor spheroids
A high-throughput screen of multi-cell type tumor spheroids was designed to identify active combinations of targeted small molecules and PI3K pathway inhibitors. Complex spheroids include a stromal component modeled by human endothelial cells (HUVEC) and fibroblasts modeled by human mesenchymal stem cells (MSCs). The concentration ranges selected for each drug and investigational agent were based upon clinically achievable concentrations if the clinical Cmax of the agent was known.
Compounds. The drugs and investigational agents: inavolisib (NSC800729), alpelisib (NSC765974), duvelisib (NSC772469), copanlisib (NSC816437), ipatasertib (NSC767898), afuresertib (NSC778305), talazoparib (NSC767125), sapanisertib (NSC764658), selumetinib (NSC741078), tovorafenib (DAY101, NSC766906), vemurafenib (NSC761431), ravoxertinib (NSC781343), sotorasib (NSC818433), MRTX1133 (NSC 836407), abemaciclib (NSC 768073), palbociclib (NSC758247), venetoclax (NSC 766270), SY5609 (NSC837396), enzalutamide (NSC755605), and darolutamide (NSC825331), were obtained from the National Cancer Institute (NCI) Developmental Therapeutics Program Chemical Repository. The FDA-approved anticancer drug set is available from the NCI Developmental Therapeutics Program. […] The stock solutions were prepared in dimethyl sulfoxide (DMSO, Sigma-Aldrich, St. Louis, MO, cat. D2650) at 800-fold the tested concentration and stored at -70 degrees C prior to their use. All drugs and investigational agents were tested over a range starting from a high concentration at or near the clinical Cmax and decreasing in half-log increments. If the clinical Cmax for an agent had not been determined, the highest concentration tested was 10 microM.
Cell Culture. All cells were maintained in an incubator at 37 degrees C and 5% CO2 with 95% humidity. The PDC lines were cultured according to standard operating procedures established by the NCI PDMR (https://pdmr.cancer.gov/sops/default.htm). All PDCs were thawed and cultured in Matrigel-coated flasks prepared with a working solution of 1X Ham's F-12 nutrient mix, without supplementation (Invitrogen, Waltham, MA, cat. 11765054), 100 U/mL penicillin-streptomycin (Invitrogen, cat. 15140122), and 2.5% Matrigel (Corning Inc., Corning, NY, cat. 354248) for the first three passages. The 354836-022-R-J1-PDC, 475296-252-R-J1-PDC, and 997726-040-R-J2-PDC lines were cultured in 6A media, which includes advanced DMEM/F-12 (Thermo Fisher Scientific, cat. 12634028), 10 mM HEPES (Thermo Fisher Scientific, cat. 15630080), 1X GlutaMAX supplement (Thermo Fisher Scientific, cat. 35050061), 0.1 mg/mL primocin (InvivoGen, San Diego, CA, cat. ant-pm-2), 10% defined fetal bovine serum, heat inactivated (HyClone Laboratories Inc., Logan, UT, cat. SH30070.03HI), 50% L-WRN conditioned media (ATCC, cat. CRL-3276), 1.25 mM N-Acetyl-L-cysteine (Sigma-Aldrich, cat. A9165), 10 mM nicotinamide (Sigma-Aldrich, cat. N0636), 1X B-27 supplement (Thermo Fisher Scientific, cat. 17504044), 1X N-2 supplement (Thermo Fisher Scientific, cat. 17502048), and 10 microM Y-27632 dihydrochloride (Tocris Bioscience, Bristol, United Kingdom, cat. 1254). The 624824-186-R-J2-PDC line was cultured in 6C/Colon 1B media, which includes all 6A media components plus 50 ng/mL human EGF recombinant protein (Thermo Fisher Scientific, cat. PHG0311). […]
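Note: spheroids exposed to agents for 7 days before viability read.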

C#Cc1c(F)ccc2cc(O)cc(-c3ncc4c(N5CC6CCC(C5)N6)nc(OCC56CCCN5CC(F)C6)nc4c3F)c12 (stereo not drawn)
inactive: viability, T/C (compound 0.0316 µM) 96.4% [middle of 4 runs] | viability, T/C (compound 0.1 µM) 95.8% [middle of 4 runs] | viability, T/C (compound 0.316 µM) 98.2% [middle of 4 runs] | viability, T/C (compound 1 µM) 114% (2×) and 95.9% and 89.8% | viability, T/C (compound 3.16 µM) 125% [middle of 4 runs] | viability, T/C (compound 10 µM) 113% [middle of 4 runs]
> 10 µM: IC50 (curve of compound)

C=CC(=O)N1CCN(c2nc(=O)n(-c3c(C)ccnc3C(C)C)c3nc(-c4c(O)cccc4F)c(F)cc23)C(C)C1 (stereo not drawn)
inactive: viability, T/C (compound 0.0316 µM) 99.2% and 94% and 95.5% | viability, T/C (compound 0.1 µM) 97.8% and 105% and 93.8% | viability, T/C (compound 0.316 µM) 103% and 94.5% and 98.7% | viability, T/C (compound 1 µM) 85.6% and 92.5% and 98.2% | viability, T/C (compound 3.16 µM) 88.8% and 100% and 113% | viability, T/C (compound 10 µM) 98.1% and 103% and 116%
> 10 µM: IC50 (curve of compound)

CC(Cn1ccc(-c2ccc(C#N)c(Cl)c2)n1)NC(=O)c1cc(C(C)O)[nH]n1 (stereo not drawn)
inactive: viability, T/C (compound 0.0316 µM) 89.7% [middle of 4 runs] | viability, T/C (compound 0.1 µM) 97.5% [middle of 4 runs] | viability, T/C (compound 0.316 µM) 94.9% [middle of 4 runs] | viability, T/C (compound 1 µM) 99.5% [middle of 4 runs] | viability, T/C (compound 3.16 µM) 114% [middle of 4 runs] | viability, T/C (compound 10 µM) 89.8% and 101% (2×) and 99%
> 10 µM: IC50 (curve of compound)

CC1(C)CCC(CN2CCN(c3ccc(C(=O)NS(=O)(=O)c4ccc(NCC5CCOCC5)c([N+](=O)[O-])c4)c(Oc4cnc5[nH]ccc5c4)c3)CC2)=C(c2ccc(Cl)cc2)C1
inactive: viability, T/C (compound 0.0316 µM) 105% [middle of 4 runs] | viability, T/C (compound 0.1 µM) 110% [middle of 4 runs] | viability, T/C (compound 0.316 µM) 101% [middle of 4 runs] | viability, T/C (compound 1 µM) 112% [middle of 4 runs] | viability, T/C (compound 3.16 µM) 130% [middle of 4 runs]
> 10 µM and 7.28 µM and 6.4 µM: IC50 (curve of compound)

CC1(C)CCC(Nc2ncc(C(F)(F)F)c(-c3c[nH]c4c(P(C)(C)=O)c(C#N)ccc34)n2)CN1 (stereo not drawn)
12.7% [middle of 4 runs]: viability, T/C (compound 10 µM)
5.16 µM [middle of 4 runs]: IC50 (curve of compound)
inactive: viability, T/C (compound 0.0316 µM) 79.6% [middle of 4 runs]

CCCS(=O)(=O)Nc1ccc(F)c(C(=O)c2c[nH]c3ncc(-c4ccc(Cl)cc4)cc23)c1F
inactive: viability, T/C (compound 0.0316 µM) 105% [middle of 4 runs] | viability, T/C (compound 0.1 µM) 97.1% [middle of 4 runs] | viability, T/C (compound 1 µM) 102% [middle of 4 runs] | viability, T/C (compound 3.16 µM) 103% [middle of 4 runs]
6.88 µM [middle of 4 runs]: IC50 (curve of compound)

CNC(=O)c1ccc(N2C(=S)N(c3ccc(C#N)c(C(F)(F)F)c3)C(=O)C2(C)C)cc1F
> 10 µM: IC50 (curve of compound)
inactive: viability, T/C (compound 0.0316 µM) 100% (2×) and 113% and 95% | viability, T/C (compound 0.1 µM) 108% [middle of 4 runs] | viability, T/C (compound 0.316 µM) 104% [middle of 4 runs] | viability, T/C (compound 3.16 µM) 113% (2×) and 102% and 121% | viability, T/C (compound 10 µM) 109% [middle of 4 runs]

Cn1ncc(Cl)c1-c1cc(C(=O)NC(CN)Cc2cccc(F)c2)sc1Cl (stereo not drawn)
inactive: viability, T/C (compound 0.0316 µM) 100% (2×) and 98.4% and 89.2% | viability, T/C (compound 0.1 µM) 98.1% [middle of 4 runs] | viability, T/C (compound 0.316 µM) 97.4% [middle of 4 runs] | viability, T/C (compound 3.16 µM) 59.7% [middle of 4 runs] | viability, T/C (compound 10 µM) 50.4% [middle of 4 runs]

Cn1nccc1Nc1nccc(-c2ccn(C(CO)c3ccc(Cl)c(F)c3)c(=O)c2)n1 (stereo not drawn)
inactive: viability, T/C (compound 0.0316 µM) 95.4% [middle of 4 runs] | viability, T/C (compound 0.1 µM) 104% [middle of 4 runs] | viability, T/C (compound 1 µM) 111% [middle of 4 runs] | viability, T/C (compound 3.16 µM) 136% (2×) and 113% and 127%
> 10 µM: IC50 (curve of compound)

Cn1cnc2c(F)c(Nc3ccc(Br)cc3Cl)c(C(=O)NOCCO)cc21 + CC(Nc1ccc2c(c1)OCCn1cc(N3C(=O)OCC3C(F)F)nc1-2)C(N)=O
inactive: viability, T/C (second compound 0.00316 µM, first compound 0.00949 µM) 105% | viability, T/C (second compound 0.00316 µM, first compound 0.03 µM) 100% | viability, T/C (second compound 0.00316 µM, first compound 0.0949 µM) 117% | viability, T/C (second compound 0.00316 µM, first compound 0.3 µM) 116% | viability, T/C (second compound 0.00316 µM, first compound 0.949 µM) 114% | viability, T/C (second compound 0.00316 µM, first compound 3 µM) 95.3% | viability, T/C (second compound 0.01 µM, first compound 0.00949 µM) 103% | viability, T/C (second compound 0.01 µM, first compound 0.03 µM) 105% | viability, T/C (second compound 0.01 µM, first compound 0.0949 µM) 114% | viability, T/C (second compound 0.01 µM, first compound 0.3 µM) 111% | viability, T/C (second compound 0.01 µM, first compound 0.949 µM) 126% | viability, T/C (second compound 0.01 µM, first compound 3 µM) 91.2% | viability, T/C (second compound 0.0316 µM, first compound 0.00949 µM) 107% | viability, T/C (second compound 0.0316 µM, first compound 0.03 µM) 119% | viability, T/C (second compound 0.0316 µM, first compound 0.0949 µM) 120% | viability, T/C (second compound 0.0316 µM, first compound 0.3 µM) 100% | viability, T/C (second compound 0.0316 µM, first compound 0.949 µM) 97.1% | viability, T/C (second compound 0.0316 µM, first compound 3 µM) 62.7% | viability, T/C (second compound 0.1 µM, first compound 0.00949 µM) 114% | viability, T/C (second compound 0.1 µM, first compound 0.03 µM) 116% | viability, T/C (second compound 0.1 µM, first compound 0.0949 µM) 104% | viability, T/C (second compound 0.1 µM, first compound 0.3 µM) 73.3% | viability, T/C (second compound 0.1 µM, first compound 0.949 µM) 49.5% | viability, T/C (second compound 0.1 µM, first compound 3 µM) 33% | viability, T/C (second compound 0.316 µM, first compound 0.00949 µM) 85.2% | viability, T/C (second compound 0.316 µM, first compound 0.03 µM) 73.1% | viability, T/C (second compound 0.316 µM, first compound 0.0949 µM) 52.7% | viability, T/C (second compound 0.316 µM, first compound 0.3 µM) 35.4% | viability, T/C (second compound 0.316 µM, first compound 0.949 µM) 26% | viability, T/C (second compound 0.316 µM, first compound 3 µM) 19.2% | viability, T/C (second compound 1 µM, first compound 0.00949 µM) 60.4% | viability, T/C (second compound 1 µM, first compound 0.03 µM) 50.7% | viability, T/C (second compound 1 µM, first compound 0.0949 µM) 36.9% | viability, T/C (second compound 1 µM, first compound 0.3 µM) 23.3% | viability, T/C (second compound 1 µM, first compound 0.949 µM) 15.9% | viability, T/C (second compound 1 µM, first compound 3 µM) 11.7%
0.118 µM: IC50 (curve of first compound, second compound 0.316 µM)
0.834 µM: IC50 (curve of first compound, second compound 0.1 µM)
0.032 µM: IC50 (curve of first compound, second compound 1 µM)
> 3 µM: IC50 (curve of first compound, second compound 0.00316 µM) | IC50 (curve of first compound, second compound 0.01 µM) | IC50 (curve of first compound, second compound 0.0316 µM)
